Converted amounts (≈) assume the structure as drawn.
Key:
Liver microsomes = assay: Metabolic stability in human liver microsomes assessed as compound remaining at 1 to 10 uM after 1 hr by LC-MS/MS analysis; assay type: ADME, Microsome
[1] = Kinetic solubility of the compound in pION buffer at 250 uM after 18 hrs at pH 5; assay type: physicochemical; conditions: read-out: Kinetic_solubility
Mu-type opioid receptor [2] = molecular target: T1, Mu-type opioid receptor (Homo sapiens, UniProt P35372); assay: Binding affinity to mu opioid receptor (unknown origin) at 10 uM relative to control
T1 sequence (P35372 whole entry): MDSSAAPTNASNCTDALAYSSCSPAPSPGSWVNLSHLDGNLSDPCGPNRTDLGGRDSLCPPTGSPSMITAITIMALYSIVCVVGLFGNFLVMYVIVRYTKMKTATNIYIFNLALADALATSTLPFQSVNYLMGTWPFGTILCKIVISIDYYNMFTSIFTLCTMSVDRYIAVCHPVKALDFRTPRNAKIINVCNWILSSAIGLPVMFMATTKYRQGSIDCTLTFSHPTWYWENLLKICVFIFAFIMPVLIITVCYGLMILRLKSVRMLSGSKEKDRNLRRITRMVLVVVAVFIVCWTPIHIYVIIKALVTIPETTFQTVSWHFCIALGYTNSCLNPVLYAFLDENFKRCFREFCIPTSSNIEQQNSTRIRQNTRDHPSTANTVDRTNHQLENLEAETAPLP

[3] = Drug uptake in C57BL/6J mouse brain at 10 mg/kg, ip after 1 hr by LC-MS/MS analysis; assay type: ADME, organism-based; set-up: dose 10 mg/kg, route intraperitoneal; conditions: read-out: Drug uptake
[4] = molecular target: T2, Alpha-1B adrenergic receptor (Homo sapiens) (UniProt P35368); assay: Binding affinity to adrenergic alpha1B receptor (unknown origin) at 10 uM relative to control
T2 sequence (whole entry): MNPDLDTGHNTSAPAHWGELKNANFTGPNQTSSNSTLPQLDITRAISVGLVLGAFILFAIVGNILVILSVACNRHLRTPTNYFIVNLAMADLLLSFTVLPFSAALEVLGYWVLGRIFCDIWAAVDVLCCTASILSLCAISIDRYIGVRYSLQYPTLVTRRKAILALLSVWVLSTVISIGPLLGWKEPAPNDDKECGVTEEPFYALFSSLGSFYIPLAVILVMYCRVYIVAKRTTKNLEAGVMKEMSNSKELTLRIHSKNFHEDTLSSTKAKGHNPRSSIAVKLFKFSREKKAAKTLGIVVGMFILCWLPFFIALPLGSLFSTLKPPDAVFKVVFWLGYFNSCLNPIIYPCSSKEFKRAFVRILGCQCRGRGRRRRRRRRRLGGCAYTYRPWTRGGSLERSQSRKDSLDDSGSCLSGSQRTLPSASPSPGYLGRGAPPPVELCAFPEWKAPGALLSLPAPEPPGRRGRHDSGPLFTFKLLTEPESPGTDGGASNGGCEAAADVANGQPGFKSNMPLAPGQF

[5] = molecular target: T3, Alpha-1A adrenergic receptor (Homo sapiens) (UniProt P35348); assay: Binding affinity to adrenergic alpha1A receptor (unknown origin) at 10 uM relative to control
T3 sequence (whole entry): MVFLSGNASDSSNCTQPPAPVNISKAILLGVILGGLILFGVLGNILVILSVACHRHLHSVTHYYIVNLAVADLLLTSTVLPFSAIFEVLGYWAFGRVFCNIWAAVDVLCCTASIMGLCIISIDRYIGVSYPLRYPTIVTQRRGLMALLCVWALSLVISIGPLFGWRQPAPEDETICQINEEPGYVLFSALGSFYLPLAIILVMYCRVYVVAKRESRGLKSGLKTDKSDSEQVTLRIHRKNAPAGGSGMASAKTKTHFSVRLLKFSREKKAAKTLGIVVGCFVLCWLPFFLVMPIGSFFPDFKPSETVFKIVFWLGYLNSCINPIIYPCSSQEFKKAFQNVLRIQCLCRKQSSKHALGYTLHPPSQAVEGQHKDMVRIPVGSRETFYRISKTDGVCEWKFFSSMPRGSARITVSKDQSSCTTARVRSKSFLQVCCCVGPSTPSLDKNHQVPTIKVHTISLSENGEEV

[6] = molecular target: T4, Alpha-2A adrenergic receptor (Homo sapiens) (UniProt P08913); assay: Binding affinity to adrenergic alpha2A receptor (unknown origin) at 10 uM relative to control
T4 sequence (whole entry): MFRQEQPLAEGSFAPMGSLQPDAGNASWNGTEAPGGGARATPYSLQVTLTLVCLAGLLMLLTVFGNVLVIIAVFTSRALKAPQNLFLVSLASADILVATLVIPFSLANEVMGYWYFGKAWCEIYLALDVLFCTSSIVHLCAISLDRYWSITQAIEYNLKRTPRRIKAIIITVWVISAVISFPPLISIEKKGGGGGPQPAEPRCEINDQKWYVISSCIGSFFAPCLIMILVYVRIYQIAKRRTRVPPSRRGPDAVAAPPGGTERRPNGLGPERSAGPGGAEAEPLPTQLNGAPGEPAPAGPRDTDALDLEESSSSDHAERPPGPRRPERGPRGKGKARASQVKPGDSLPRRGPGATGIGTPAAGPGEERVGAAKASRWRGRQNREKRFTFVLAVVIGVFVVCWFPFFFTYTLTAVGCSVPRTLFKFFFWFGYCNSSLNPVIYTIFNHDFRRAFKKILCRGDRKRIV

Plasma [7] = assay: Plasma protein binding in human at 1 uM after 4 hrs by LC-MS/MS analysis; assay type: ADME, cell-free
[8] = molecular target: 5-hydroxytryptamine receptor 7 (Homo sapiens, UniProt P34969); assay: Binding affinity to 5-HT7 receptor (unknown origin)
5-hydroxytryptamine receptor 7, sequence (P34969 whole entry): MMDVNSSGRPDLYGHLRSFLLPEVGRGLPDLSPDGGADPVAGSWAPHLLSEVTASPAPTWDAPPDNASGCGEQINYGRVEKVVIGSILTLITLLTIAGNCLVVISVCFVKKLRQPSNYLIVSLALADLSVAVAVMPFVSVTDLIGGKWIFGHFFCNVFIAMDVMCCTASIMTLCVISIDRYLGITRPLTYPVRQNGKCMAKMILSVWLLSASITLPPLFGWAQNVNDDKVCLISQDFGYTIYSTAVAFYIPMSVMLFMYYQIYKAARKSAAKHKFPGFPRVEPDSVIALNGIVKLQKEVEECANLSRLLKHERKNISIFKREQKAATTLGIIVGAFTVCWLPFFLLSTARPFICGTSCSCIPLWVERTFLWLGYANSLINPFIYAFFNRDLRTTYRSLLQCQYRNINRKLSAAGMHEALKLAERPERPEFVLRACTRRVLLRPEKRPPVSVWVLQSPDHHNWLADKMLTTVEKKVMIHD

[9] = molecular target: T5, Neurotensin receptor type 1 (Homo sapiens, UniProt P30989); conditions: U2OS
T5 sequence (P30989 whole entry): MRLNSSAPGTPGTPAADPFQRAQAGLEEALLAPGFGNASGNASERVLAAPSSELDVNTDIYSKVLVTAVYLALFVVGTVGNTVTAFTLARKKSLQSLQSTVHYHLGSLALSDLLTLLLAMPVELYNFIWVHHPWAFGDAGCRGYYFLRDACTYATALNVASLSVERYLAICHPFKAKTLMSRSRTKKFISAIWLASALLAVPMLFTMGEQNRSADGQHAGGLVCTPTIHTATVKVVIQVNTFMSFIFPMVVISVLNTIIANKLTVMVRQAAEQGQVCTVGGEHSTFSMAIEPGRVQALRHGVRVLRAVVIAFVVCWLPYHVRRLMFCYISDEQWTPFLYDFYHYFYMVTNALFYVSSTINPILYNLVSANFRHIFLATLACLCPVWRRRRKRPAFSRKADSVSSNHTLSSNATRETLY
Description: Agonist activity at NTR1 (unknown origin) expressed in human U2OS cells coexpressing beta-arrestin by GFP reporter gene assay

[10] = system: Mycobacterium tuberculosis; assay: Antibacterial activity against Mycobacterium tuberculosis H37Rv assessed as growth inhibition; assay type: functional
[11] = Effective permeability of the compound at 50 uM after 30 mins at donor pH 5 and acceptor pH 7.4 by PAMPA; assay type: ADME; conditions: pH 5, 0.5 h
Mus musculus = assay: Hepatic clearance in C57BL/6J mouse at 2 mg/kg, iv by LC-MS/MS analysis; assay type: ADME, organism-based, Liver; set-up: dose 2 mg/kg, route intravenous; conditions: in vivo
Mu-type opioid receptor [12] = molecular target: T1, Mu-type opioid receptor; assay: Binding affinity to mu opioid receptor (unknown origin)
[13] = molecular target: G-protein coupled receptor 35 (Homo sapiens, UniProt Q9HC97); assay: Agonist activity at GPR35 (unknown origin) expressed in human U2OS cells coexpressing beta-arrestin by GFP reporter gene assay; assay type: cell-based
G-protein coupled receptor 35, sequence (Q9HC97 whole entry): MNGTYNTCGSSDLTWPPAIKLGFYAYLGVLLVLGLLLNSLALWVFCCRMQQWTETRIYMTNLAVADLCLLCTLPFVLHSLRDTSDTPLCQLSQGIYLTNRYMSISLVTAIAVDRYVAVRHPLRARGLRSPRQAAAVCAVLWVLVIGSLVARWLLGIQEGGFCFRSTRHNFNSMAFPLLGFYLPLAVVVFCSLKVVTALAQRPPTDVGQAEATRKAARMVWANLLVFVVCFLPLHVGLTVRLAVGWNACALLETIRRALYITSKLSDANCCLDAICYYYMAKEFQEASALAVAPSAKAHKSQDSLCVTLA

Histamine H1 receptor = Histamine H1 receptor (Homo sapiens, UniProt P35367); assay: Binding affinity to histamine H1 receptor (unknown origin)
Histamine H1 receptor, sequence (P35367 whole entry): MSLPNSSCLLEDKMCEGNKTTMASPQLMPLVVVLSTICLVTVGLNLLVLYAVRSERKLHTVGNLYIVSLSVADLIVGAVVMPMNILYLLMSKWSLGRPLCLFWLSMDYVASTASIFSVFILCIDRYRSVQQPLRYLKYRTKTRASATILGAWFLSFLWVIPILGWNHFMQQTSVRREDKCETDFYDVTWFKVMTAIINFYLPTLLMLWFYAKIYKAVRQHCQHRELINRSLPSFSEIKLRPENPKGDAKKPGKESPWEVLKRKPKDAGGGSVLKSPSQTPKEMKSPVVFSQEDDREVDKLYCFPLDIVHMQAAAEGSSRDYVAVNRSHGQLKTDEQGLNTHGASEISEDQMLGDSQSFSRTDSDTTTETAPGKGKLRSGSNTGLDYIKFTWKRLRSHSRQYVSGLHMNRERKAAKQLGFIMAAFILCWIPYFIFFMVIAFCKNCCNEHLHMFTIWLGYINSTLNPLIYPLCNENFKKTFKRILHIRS

Plasma [14] = assay: Plasma protein binding in human at 10 uM after 4 hrs by LC-MS/MS analysis; assay type: ADME, cell-free
[15] = Effective permeability of the compound at 50 uM after 30 mins at donor pH 6.2 and acceptor pH 7.4 by PAMPA; assay type: ADME; conditions: pH 6.2, 0.5 h
[16] = molecular target: Neurotensin receptor type 2 (Homo sapiens, UniProt O95665); assay: Agonist activity at NTR2 (unknown origin) expressed in human U2OS cells coexpressing beta-arrestin by GFP reporter gene assay; assay type: cell-based
Neurotensin receptor type 2, sequence (O95665 whole entry): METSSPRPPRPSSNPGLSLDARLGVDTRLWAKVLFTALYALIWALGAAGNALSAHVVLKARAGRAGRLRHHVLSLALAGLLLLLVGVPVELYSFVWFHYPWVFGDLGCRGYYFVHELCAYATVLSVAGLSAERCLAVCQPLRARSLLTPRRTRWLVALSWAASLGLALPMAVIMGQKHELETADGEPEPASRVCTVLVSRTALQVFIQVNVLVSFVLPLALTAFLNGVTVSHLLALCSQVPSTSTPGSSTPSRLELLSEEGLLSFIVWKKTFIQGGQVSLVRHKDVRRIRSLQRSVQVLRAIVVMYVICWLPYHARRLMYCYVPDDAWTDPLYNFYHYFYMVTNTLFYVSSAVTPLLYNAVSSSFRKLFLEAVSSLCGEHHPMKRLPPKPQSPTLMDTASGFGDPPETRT

Translocator protein = Translocator protein (Homo sapiens, UniProt P30536); assay: Binding affinity to PBR receptor (unknown origin)
Translocator protein, sequence (P30536 whole entry): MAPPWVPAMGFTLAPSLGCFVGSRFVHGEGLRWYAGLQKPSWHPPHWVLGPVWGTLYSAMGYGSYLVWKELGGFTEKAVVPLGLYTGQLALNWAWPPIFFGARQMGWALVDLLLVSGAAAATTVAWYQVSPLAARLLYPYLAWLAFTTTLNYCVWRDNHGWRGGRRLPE

[17] = Kinetic solubility of the compound in pION buffer at 250 uM after 18 hrs at pH 7.4; assay type: physicochemical; conditions: read-out: Kinetic_solubility
[18] = Drug uptake in C57BL/6J mouse brain at 30 mg/kg, ip after 1 hr by LC-MS/MS analysis; assay type: ADME, organism-based; set-up: dose 30 mg/kg, route intraperitoneal; conditions: read-out: Drug uptake
[19] = molecular target: T5, Neurotensin receptor type 1; assay: Agonist activity at NTR1 (unknown origin) expressed in CHOK1 cells by beta-arrestin assay relative to neurotensin (8 to 13); assay type: cell-based; conditions: CHO-K1
Hepatitis C virus = assay: Antiviral activity against Hepatitis C virus assessed as growth inhibition; assay type: functional, Hepacivirus hominis

Structure (SMILES): COc1cc2nc(C3CC3)nc(N3CCN(c4ccccc4OC)CC3)c2cc1OC
- Stability (Liver microsomes): 1.4%
- solubility kinetic at 18 h, 250 µM [1]: > 297 µM
- Activity (Mu-type opioid receptor [2]): 86%
- concentration at 1 h [3]: 924 ng/mL
- Activity [4]: 63%
- Activity [5]: 63%
- Activity [6]: 63%
- PPB (Plasma [7]): 99.5%
- Ki [8]: 930 nM
- EC100 [9]: 10 µM
- GI [10]: 3.9 µM
- Peff [11]: 1160 ×10⁻⁶ cm/s
- CLH (Mus musculus): 81 mL/min/kg
- Ki (Mu-type opioid receptor [12]): 1540 nM
- EC50 [13]: > 40000 nM
- Ki (Histamine H1 receptor): 1420 nM
- PPB (Plasma [14]): 99.2%
- Peff [15]: 2140 ×10⁻⁶ cm/s
- EC50 [16]: > 80000 nM
- Ki (Translocator protein): 2540 nM
- solubility kinetic at 18 h, 250 µM [17]: 1.2 µM (≈ 0.505 µg/mL)
- concentration at 1 h [18]: 1510 ng/mL
- Emax [19]: 86.6%
- GI (Hepatitis C virus): 3.16 µM
